The values that follow come from the supplement of paper PMC11208160.

The nature of the series: recombinant barcode read abundance after kanamycin selection (control-corrected) (log10(CPM+1)); higher = more efficient recombination; sequences stand for … in AGTGCAGAGAAAATCGGCCAGTTTTCTCTGCCTGCAGTCCGCATGCCGT…AGATTTATGCAGCGGACTGCCTTTCTCCCAAAGTGATAAACCGGACAGTATCATGGACCGGTTTTCCCGGTAATCCGTATTTGCAAGGTTGGTTTCACT; site = the 11-nt target. In outline:
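A promoter, a target, a barcode and the first 104 bridge RNA bases under J23119 made up each oligo. Oligos were Gibson-cloned into a vector bearing the other 73 bp and a T7-inducible recombinase, then co-electroporated into E. coli with a donor plasmid and plated in duplicate on chloramphenicol/ampicillin LB agar (control) or chloramphenicol/ampicillin/kanamycin with 0.1 mM IPTG. Recombination efficiency is the averaged, control-corrected counts per million of recombinant-junction barcodes. Reported values are log10(CPM+1).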
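Also: IS621 recombinase and bridge RNA in Escherichia coli cells.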

For the sequence “AGGTGTGCTTGGGTTCTAACCTGTTGCCT (site AGGTCTGCTAG)”, the “recombinant barcode read abundance (log10)” value stood at 0.123.
For “AGGTGTGCTTGGGTTCTAACCTGTTGCCT (site AGGTGTGCTAG)” the value was 1.19.
As to “AGGTGTGCTTGGGTTCTAACCTGTTGCCT (site AGGTTTGCTAG)”, the “recombinant barcode read abundance (log10)” value was found to be 0.502.
For the sequence “AGGTTCCCTTGGGTTCTAACCTGTTGCTA (site AGGTTCCCTAA)”, the “recombinant barcode read abundance (log10)” value came out at 0.0211.
As for “AGGTTCCCTTGGGTTCTAACCTGTTGCTA (site AGGTTCCCTCA)”, the “recombinant barcode read abundance (log10)” value was 0.0107.
In the case of “AGGTTCCCTTGGGTTCTAACCTGTTGCTA (site AGGTTCCCTGA)”, the “recombinant barcode read abundance (log10)” value was 0.0194.
In the case of “AGGTTCCCTTGGGTTCTAACCTGTTGCTA (site AGGTTCCCTTA)”, the “recombinant barcode read abundance (log10)” value worked out at 1.32.
In the case of “AGGTTCCCTTGGGTTCTAACCTGTTGCTT (site AGGTTCCCTAA)”, the “recombinant barcode read abundance (log10)” value is 1.41.
As for “AGGTTCCCTTGGGTTCTAACCTGTTGCTT (site AGGTTCCCTCA)”, the “recombinant barcode read abundance (log10)” value turned out to be 0.0899.
In the case of “AGGTTCCCTTGGGTTCTAACCTGTTGCTT (site AGGTTCCCTGA)”, the “recombinant barcode read abundance (log10)” value was found to be 0.621.
For “AGGTTCCCTTGGGTTCTAACCTGTTGCTT (site AGGTTCCCTTA)” the value was 0.183; for “AGGTTTGCTTGGGTTCTAACCTGTTGCCT (site AGGTATGCTAG)”, 0.168.
Consider “AGGTTTGCTTGGGTTCTAACCTGTTGCCT (site AGGTCTGCTAG)”, for which the “recombinant barcode read abundance (log10)” value amounted to 0.471.
In the case of “AGGTTTGCTTGGGTTCTAACCTGTTGCCT (site AGGTGTGCTAG)”, the “recombinant barcode read abundance (log10)” value was found to be 0.018.
With “AGGTTTGCTTGGGTTCTAACCTGTTGCCT (site AGGTTTGCTAG)”, the “recombinant barcode read abundance (log10)” value was determined as 0.0479.
Take “AGGTTTGCTTGGGTTCTAACCTGTTGCTT (site AGGTTTGCTAA)”: the “recombinant barcode read abundance (log10)” value was 0.00886.
For “AGGTTTGCTTGGGTTCTAACCTGTTGCTT (site GTCACAACTCG)”, the “recombinant barcode read abundance (log10)” value worked out at 0.101.
On to “AGTACGCCTTGGGTTCTAACCTGTTGCCT (site AGTACGCCTAG)”, for which the “recombinant barcode read abundance (log10)” value was 0.0474.
Consider “AGTACGCCTTGGGTTCTAACCTGTTGCCT (site TGAACGCCTAG)”, for which the “recombinant barcode read abundance (log10)” value stood at 0.07.
With “AGTAGAACTTGGGTTCTAACCTGTTGCCT (site AGTAGAACTAG)”, the “recombinant barcode read abundance (log10)” value worked out at 0.387.
Take “AGTAGAACTTGGGTTCTAACCTGTTGCCT (site CGTAGAGCTAG)”: the “recombinant barcode read abundance (log10)” value stood at 0.172.
In the case of “AGTAGGACTTGGGTTCTAACCTGTTGCCT (site AGTAGGACTAG)”, the “recombinant barcode read abundance (log10)” value was 0.242.
Under “AGTAGGACTTGGGTTCTAACCTGTTGCCT (site CGTAGGACTAG)” stands 0.
For “AGTAGGACTTGGGTTCTAACCTGTTGCCT (site GGTAGGACTAG)” the value was 0.0674.
As for “AGTAGGACTTGGGTTCTAACCTGTTGCCT (site TGTAGGACTAG)”, the “recombinant barcode read abundance (log10)” value was 0.213.
Regarding “AGTAGTTCTTGGGTTCTAACCTGTTGCAG (site AGTAGTTCTCT)”, the “recombinant barcode read abundance (log10)” value was 0.683.
“AGTAGTTCTTGGGTTCTAACCTGTTGCAG (site CTCGTAGCTAG)”: the “recombinant barcode read abundance (log10)” value came out at 0.104.
Consider “AGTCAAACTTGGGTTCTAACCTGTTGCCT (site AGTCAAACTAG)”, for which the “recombinant barcode read abundance (log10)” value came out at 0.157.
As to “AGTCAAACTTGGGTTCTAACCTGTTGCCT (site AGTCATACTAG)”, the “recombinant barcode read abundance (log10)” value amounted to 0.141.
For the sequence “AGTCACACTTGGGTTCTAACCTGTTGCTA (site AGTCACACTCA)”, the “recombinant barcode read abundance (log10)” value was determined as 0.179.
For the sequence “AGTCACACTTGGGTTCTAACCTGTTGCTA (site AGTCACACTTA)”, the “recombinant barcode read abundance (log10)” value turned out to be 1.48.
Take “AGTCAGTCTTGGGTTCTAACCTGTTGCGT (site AGTCAGTCTAC)”: the “recombinant barcode read abundance (log10)” value was determined as 2.33.
Turning to “AGTCAGTCTTGGGTTCTAACCTGTTGCGT (site AGTCATTCTAT)”, the “recombinant barcode read abundance (log10)” value was determined as 0.0526.
As to “AGTCATACTTGGGTTCTAACCTGTTGCCT (site AGTCAAACTAG)”, the “recombinant barcode read abundance (log10)” value worked out at 0.
For “AGTCATACTTGGGTTCTAACCTGTTGCCT (site AGTCATACTAG)” the value was 0.232.
Regarding “AGTCATCCTTGGGTTCTAACCTGTTGCCT (site AGTCATACTAT)”, the “recombinant barcode read abundance (log10)” value came to 0.0998.
As for “AGTCATCCTTGGGTTCTAACCTGTTGCCT (site AGTCATCCTAG)”, the “recombinant barcode read abundance (log10)” value came out at 0.667.
For the sequence “AGTCCTGCTTGGGTTCTAACCTGTTGCCT (site AGTCCTGCTAG)”, the “recombinant barcode read abundance (log10)” value stood at 0.722.
As for “AGTCCTGCTTGGGTTCTAACCTGTTGCCT (site CGTCCTGCTAG)”, the “recombinant barcode read abundance (log10)” value worked out at 0.072.
Turning to “AGTCCTGCTTGGGTTCTAACCTGTTGCCT (site GGTCCTGCTAG)”, the “recombinant barcode read abundance (log10)” value is 0.154.
Turning to “AGTCCTGCTTGGGTTCTAACCTGTTGCCT (site TGTCCTGCTAG)”, the “recombinant barcode read abundance (log10)” value was 0.0318.
Under “AGTCGATCTTGGGTTCTAACCTGTTGCTT (site ACTCGATCTAG)” stands 0.0101; under “AGTCGATCTTGGGTTCTAACCTGTTGCTT (site AGTCGATCTAA)”, 0.496.
For “AGTCGGCCTTGGGTTCTAACCTGTTGCCT (site AGTCGGCCTAG)” the value was 0.129; for “AGTCGGCCTTGGGTTCTAACCTGTTGCCT (site ATTCGGCCTAG)”, 0.228; for “AGTCGGTCTTGGGTTCTAACCTGTTGCAT (site AGTCGGTCTAT)”, 0.813.
Under “AGTCGGTCTTGGGTTCTAACCTGTTGCAT (site GGTCCGTCTAT)” stands 0.0825; under “AGTCTACCTTGGGTTCTAACCTGTTGCTT (site AGTCTACCTAA)”, 0.331; under “AGTCTACCTTGGGTTCTAACCTGTTGCTT (site CGTCTACCTAA)”, 0.0324.
Take “AGTCTAGCTTGGGTTCTAACCTGTTGCCT (site AGTCTAGCTAG)”: the “recombinant barcode read abundance (log10)” value is 0.0325.
Turning to “AGTCTAGCTTGGGTTCTAACCTGTTGCCT (site AGTCTAGCTCG)”, the “recombinant barcode read abundance (log10)” value is 0.692.
For “AGTCTAGCTTGGGTTCTAACCTGTTGCCT (site AGTCTAGCTGG)”, the “recombinant barcode read abundance (log10)” value came to 0.141.
For “AGTCTAGCTTGGGTTCTAACCTGTTGCCT (site AGTCTAGCTTG)” the value was 0.0207.
On to “AGTCTAGCTTGGGTTCTAACCTGTTGCTA (site AGTCTAGCTGA)”, for which the “recombinant barcode read abundance (log10)” value amounted to 0.166.
“AGTCTAGCTTGGGTTCTAACCTGTTGCTA (site AGTCTAGCTTA)”: the “recombinant barcode read abundance (log10)” value is 0.175.
Under “AGTGAGACTTGGGTTCTAACCTGTTGCGG (site ACCGAGACTCC)” stands 1.09.
Under “AGTGAGACTTGGGTTCTAACCTGTTGCGG (site AGTGAGACTCC)” stands 2.99.
For “AGTGCGCCTTGGGTTCTAACCTGTTGCTA (site AGTGCGCCTTA)” the value was 0.341; for “AGTGCGCCTTGGGTTCTAACCTGTTGCTA (site AGTTCGCCTTA)”, 0.29.
With “AGTGTCGCTTGGGTTCTAACCTGTTGCGG (site AGTATCGCTCC)”, the “recombinant barcode read abundance (log10)” value was found to be 0.96.
For “AGTGTCGCTTGGGTTCTAACCTGTTGCGG (site AGTCTCGCTCC)” the value was 0.0162; for “AGTGTCGCTTGGGTTCTAACCTGTTGCGG (site AGTGTCGCTCC)”, 1.6; for “AGTGTCGCTTGGGTTCTAACCTGTTGCGG (site AGTTTCGCTCC)”, 0.301.
For “AGTTCTCCTTGGGTTCTAACCTGTTGCCT (site AGTTCTCCTAG)” the value was 0.0504; for “AGTTCTCCTTGGGTTCTAACCTGTTGCCT (site CGTTCTCCTAG)”, 0.415; for “AGTTCTCCTTGGGTTCTAACCTGTTGCCT (site GGTTCTCCTAG)”, 0.207.
For “AGTTCTCCTTGGGTTCTAACCTGTTGCCT (site TGTTCTCCTAG)” the value was 0.456; for “AGTTGCACTTGGGTTCTAACCTGTTGCCT (site AGTTACACTAG)”, 0.14; for “AGTTGCACTTGGGTTCTAACCTGTTGCCT (site AGTTCCACTAG)”, 0.11.
“AGTTGCACTTGGGTTCTAACCTGTTGCCT (site AGTTGCACTAG)”: the “recombinant barcode read abundance (log10)” value was determined as 0.423.
Turning to “AGTTGCACTTGGGTTCTAACCTGTTGCCT (site AGTTTCACTAG)”, the “recombinant barcode read abundance (log10)” value was found to be 0.0516.
Regarding “AGTTTAACTTGGGTTCTAACCTGTTGCAC (site AGTTTAACTGT)”, the “recombinant barcode read abundance (log10)” value turned out to be 0.0458.
On to “AGTTTAACTTGGGTTCTAACCTGTTGCAC (site GTCGGTCCTCG)”, for which the “recombinant barcode read abundance (log10)” value stood at 0.258.
Turning to “ATAAAAGCTTGGGTTCTAACCTGTTGCCT (site ATAAAAGCTAG)”, the “recombinant barcode read abundance (log10)” value amounted to 1.5.
For “ATAAAAGCTTGGGTTCTAACCTGTTGCCT (site ATAACAGCTAG)”, the “recombinant barcode read abundance (log10)” value was 0.0538.
For “ATAAAAGCTTGGGTTCTAACCTGTTGCCT (site ATAAGAGCTAG)”, the “recombinant barcode read abundance (log10)” value was determined as 0.172.
Regarding “ATAAAAGCTTGGGTTCTAACCTGTTGCCT (site ATAATAGCTAG)”, the “recombinant barcode read abundance (log10)” value was 0.59.
